Test results taken from ChEMBL document CHEMBL5241090, “A comprehensive overview of β-carbolines and its derivatives as anticancer agents” (Eur J Med Chem, 2021).
≈ marks a conversion by molar mass, not a printed value.

How the values were obtained:
COLO 205 = experiment: Antiproliferative activity against human COLO 205 cells; assay type: functional, cell-based
A549 [1] = experiment: Cytotoxicity against human A549 cells by MTT assay; assay type: functional, cell-based
B16 = experiment: Cytotoxicity against mouse B16 cells by MTT assay; assay type: functional, cell-based
HT-29 = experiment: Cytotoxicity against human HT-29 cells by MTT assay; assay type: functional, cell-based
PC-3 = experiment: Cytotoxicity against human PC-3 cells by MTT assay; assay type: functional, cell-based
HeLa = experiment: Cytotoxicity against human HeLa cells by MTT assay; assay type: functional, cell-based
OVCAR-3 = experiment: Cytotoxicity against human OVCAR-3 cells by MTT assay; assay type: functional, cell-based
SW480 = experiment: Cytotoxicity against human SW480 cells by MTT assay; assay type: functional, cell-based
LoVo = experiment: Cytotoxicity against human LoVo cells by MTT assay; assay type: functional
T47D [2] = experiment: Antiproliferative activity against human T47D cells assessed as cell viability incubated for 48 hrs by MTT assay; assay type: functional, cell-based
T47D [3] = experiment: Antiproliferative activity against human T47D cells assessed as cell viability incubated for 24 hrs by MTT assay; assay type: functional, cell-based
NCI-H460 [4] = experiment: Antiproliferative activity against human NCI-H460 cells assessed as cell viability incubated for 24 hrs by MTT assay; assay type: functional, cell-based; conditions: NCI-H460, 24 h
NCI-H460 [5] = experiment: Antiproliferative activity against human NCI-H460 cells assessed as cell viability incubated for 48 hrs by MTT assay; assay type: functional, cell-based; conditions: NCI-H460, 48 h
HCT-116 [6] = experiment: Antiproliferative activity against human HCT-116 cells assessed as cell viability incubated for 24 hrs by MTT assay; assay type: functional, cell-based; conditions: HCT-116, 24 h
K562 = experiment: Cytotoxicity against human K562 cells; assay type: functional, cell-based
SK-MEL-2 = experiment: Cytotoxicity against human SK-MEL-2 cells by SRB assay; assay type: functional, cell-based
A549 [7] = experiment: Cytotoxicity against human A549 cells by SRB assay; assay type: functional, cell-based
SAOS-2 = experiment: Cytotoxicity against human SAOS-2 cells by SRB assay; assay type: functional, cell-based
[8] = Cytotoxicity against human U-87 MG cells by SRB assay; assay type: functional, cell-based, U-87MG ATCC
MCF7 [9] = experiment: Cytotoxicity against human MCF7 cells by SRB assay; assay type: functional, cell-based
KB [10] = experiment: Cytotoxicity against human KB cells by SRB assay; assay type: functional, cell-based
1A9 = experiment: Cytotoxicity against human 1A9 cells by SRB assay; assay type: functional, cell-based
DU-145 = experiment: Antiproliferative activity against human DU-145 cells incubated for 48 hrs by MTT assay; assay type: functional, cell-based; conditions: DU-145, 48 h
ADR5000 cell line = experiment: Cytotoxicity against human multidrug-resistant CEM/ADR5000 cells assessed as fluorescence incubated for 72 hrs by resazurin reduction assay; assay type: functional, cell-based; conditions: ADR5000, 72 h
CCRF-CEM = experiment: Cytotoxicity against human drug sensitive CCRF-CEM cells assessed as fluorescence incubated for 72 hrs by resazurin reduction assay; assay type: functional, cell-based
Keratinocyte = experiment: Cytotoxicity against guinea pig ear keratinocytes using [3H]thymidine by liquid scintillation counting analysis; assay type: functional, cell-based; conditions: Cavia porcellus
HCC1395 = experiment: Antiproliferative activity against human HCC1395 cells incubated for 48 hrs by MTT assay; assay type: functional, cell-based; conditions: HCC1395, 48 h
A549 [11] = experiment: Cytotoxicity against human A549 cells; assay type: functional, cell-based
MCF7 [12] = experiment: Cytotoxicity against human MCF7 cells; assay type: functional, cell-based
NCI-H460 [13] = experiment: Cytotoxicity against human NCI-H460 cells; assay type: functional, cell-based
HCT-116 [14] = experiment: Cytotoxicity against human HCT-116 cells; assay type: functional, cell-based
HCT-15 = experiment: Cytotoxicity against human HCT-15 cells; assay type: functional, cell-based
Ramos = experiment: Cytotoxicity against human Ramos RA.1 cells assessed as growth inhibition measured upto 48 hrs by CCK-8 assay; assay type: functional, cell-based
[15] = Cytotoxicity against mouse J558 cells assessed as growth inhibition measured upto 48 hrs by CCK-8 assay; assay type: functional, cell-based; conditions: J558, 48 h
RPMI-8226 = experiment: Cytotoxicity against human RPMI-8226 cells; assay type: functional, cell-based
SR = experiment: Cytotoxicity against human SR cells; assay type: functional, cell-based
HepG2 = experiment: Cytotoxicity against human HepG2 cells measured after 48 hrs by MTT assay; assay type: functional, cell-based; conditions: HepG2, 48 h
SMMC-7721 = experiment: Cytotoxicity against human SMMC-7721 cells measured after 48 hrs by MTT assay; assay type: functional, cell-based; conditions: SMMC-7721, 48 h
EJ = experiment: Cytotoxicity against human EJ cells measured after 48 hrs by MTT assay; assay type: functional, cell-based
HCT-116 [16] = experiment: Cytotoxicity against human HCT-116 cells measured after 48 hrs by MTT assay; assay type: functional, cell-based; conditions: HCT-116, 48 h
NCI-H460 [17] = experiment: Cytotoxicity against human NCI-H460 cells measured after 48 hrs by MTT assay; assay type: functional, cell-based; conditions: NCI-H460, 48 h
HL-60 = experiment: Cytotoxicity against human HL-60 cells; assay type: functional, cell-based; conditions: hl-60
[18] = Cytotoxicity against human BGC cells; assay type: functional, cell-based
KB [19] = experiment: Cytotoxicity against human KB cells; assay type: functional, cell-based; conditions: kb

With `CC(C)(C)OC(=O)n1cc(C/C=C(\c2cn(C(=O)OC(C)(C)C)c3ccccc23)C2NCCc3c2[nH]c2ccccc32)c2ccccc21` (stereo unspecified) as the compound, how does the IC50 (COLO 205) read?
The IC50 was 2.7 µM.

Which IC50 (A549 [1]) does the source give for `C[C@@H](O)CCCCC(=O)c1nccc2c1[nH]c1ccccc12` here?
Its IC50 is 1.7 µM.

Which IC50 (B16) does the source give for `COc1cc(C(=O)/C=C/c2cc3c([nH]c4ccccc43)c(-c3cc(OC)c(OC)c(OC)c3)n2)cc(OC)c1OC` here?
Its IC50 is 5.3 µM.

And the IC50 (HT-29)?
Its IC50 is 5.3 µM.

And the IC50 (PC-3)?
The IC50 was 5.3 µM.

And the IC50 (HeLa)?
The IC50 was 5.3 µM.

Which IC50 (OVCAR-3) does the source give for `CC(C)OC(=O)c1cc2c([nH]c3ccccc32)c(-c2cccc3ccccc23)n1` here?
The IC50 was 7.5 µM.

What about the IC50 (PC-3) of the same compound?
Its IC50 is 7.1 µM.

And the IC50 (SW480)?
Its IC50 is 2.7 µM.

Which IC5 (LoVo) does the source give for `CCCCn1c2ccccc2c2cc(C(=O)O)ncc21` here?
The IC5 was 11 µM.

With `Cc1nccc2c3ccccc3n(CCCCn3c4ccccc4c4ccnc(C)c43)c12` as the compound, how does the IC50 (T47D [2]) read?
The IC50 was 8.22 µM.

What about the IC50 (T47D [3]) of the same compound?
The IC50 was 9.88 µM.

And the IC50 (NCI-H460 [4])?
The IC50 was 10.9 µM.

What about the IC50 (NCI-H460 [5]) of the same compound?
The IC50 was 9.58 µM.

And the IC50 (HCT-116 [6])?
The IC50 was 5.09 µM.

For `CC[C@H](C)[C@H](NC(=O)[C@H](Cc1c[nH]c2ccccc12)NC(=O)[C@H](Cc1c[nH]c2ccccc12)NC(=O)c1cc2c([nH]c3ccccc32)c(-c2ccc(O)c(OC)c2)n1)C(=O)OCc1ccccc1`, which IC50 (K562) is on record?
The IC50 was 12 µM.

For `COc1ccc2c(c1)[nH]c1c(/C=C/c3ccc([N+](=O)[O-])cc3)nccc12`, which IC50 (SK-MEL-2) is on record?
The IC50 was 0.3 µg/mL (≈ 0.869 µM).

And the IC50 (A549 [7])?
The IC50 was 0.3 µg/mL (≈ 0.869 µM).

And the IC50 (SAOS-2)?
The IC50 was 0.3 µg/mL (≈ 0.869 µM).

What about the IC50 [8] of the same compound?
Its IC50 is 0.3 µg/mL (≈ 0.869 µM).

And the IC50 (MCF7 [9])?
The IC50 was 0.3 µg/mL (≈ 0.869 µM).

What about the IC50 (KB [10]) of the same compound?
The IC50 was 0.3 µg/mL (≈ 0.869 µM).

What about the IC50 (1A9) of the same compound?
Its IC50 is 0.3 µg/mL (≈ 0.869 µM).

With `O=c1ccc2nccc3c4ccccc4n1c23` [CANTHIN-6-ONE] as the compound, how does the IC50 (DU-145) read?
Its IC50 is 9.43 µg/mL (≈ 42.8 µM).

What about the IC50 (ADR5000 cell line) of the same compound?
Its IC50 is 10.5 µM.

What about the IC50 (CCRF-CEM) of the same compound?
The IC50 was 15.8 µM.

What about the IC50 (Keratinocyte) of the same compound?
Its IC50 is 1.11 µg/mL (≈ 5.04 µM).

What about the IC50 (HCC1395) of the same compound?
The IC50 was 8.12 µg/mL (≈ 36.9 µM).

What does the source list for `COc1ccc(OC)c(-c2nc(/C=C3/C(=O)N(Cc4ccccc4)c4ccc(Br)cc43)cc3c2[nH]c2ccccc23)c1`?
IC50 (A549 [11]): 1.43 µM; IC50 (MCF7 [12]): 1.43 µM; IC50 (NCI-H460 [13]): 1.43 µM; IC50 (HCT-116 [14]): 1.43 µM; IC50 (HCT-15): 1.43 µM

Which IC50 (Ramos) does the source give for `CCCCn1c2ccccc2c2cc[n+](Cc3ccc(F)cc3)c(-c3ccccc3Cl)c21` here?
Its IC50 is 9.08 µM.

And the IC50 [15]?
The IC50 was 8.02 µM.

For `O=C(Cn1c2ccccc2c2ccncc21)N/N=C/c1cccc2ccccc12`, which IC50 (RPMI-8226) is on record?
Its IC50 is 7.8 µM.

And the IC50 (SR)?
Its IC50 is 6.3 µM.

And the IC50 (HCT-116 [14])?
Its IC50 is 3.5 µM.

Which IC50 (HepG2) does the source give for `Cc1nc(C(=O)NCCCCNC(=O)c2ccccc2O)cc2c1[nH]c1ccccc12` here?
The IC50 was 6.97 µM.

What about the IC50 (SMMC-7721) of the same compound?
Its IC50 is 6.97 µM.

And the IC50 (EJ)?
Its IC50 is 6.97 µM.

What about the IC50 (HCT-116 [16]) of the same compound?
The IC50 was 6.97 µM.

What about the IC50 (NCI-H460 [17]) of the same compound?
The IC50 was 6.97 µM.

For `NCCCCNC(=O)c1cc2c(cn1)[nH]c1ccccc12`, which IC50 (HL-60) is on record?
The IC50 was 8.6 µM.

And the IC50 [18]?
Its IC50 is 8.6 µM.

What about the IC50 (KB [19]) of the same compound?
Its IC50 is 8.6 µM.
